In patent US20190374566A1, “COMPOSITION FOR PREVENTING AND TREATING ARTHRITIS, INCLUDING DNA FRAGMENT MIXTURE AND MATRIX METALLOPROTEINASE PRODUCTION INHIBITOR” (BR PHARM CO., LTD., priority 2018, published 2019):

Assays:
Format in all cases: cell-based, human
[1] = system: MMP-3; experiment: MMP-3 expression (ELISA) in 3D cultured SW-1353 cells stimulated with IL-β; conditions: 3D SW-1353, 10 mM of inhibitor together with 0, 10, 100 and 1000 μg/ml DNA fragment mixture, IL-β 10 ng/ml
Method: (§1) SW-1353 cells were grown on a 3D collagen […] with or without a DNA fragment mixture (polydeoxyribonucleotides (PDRN), 450 kDa, sterilized, BR Pharm Co, Wonju, South Korea). SW-1353 cells were harvested from the 2D culture, and the cells in the medium were counted. Next, the cells were spun down and cooled. For use of the DNA fragment mixture as an extracellular matrix (ECM) additive to 3D chondrocytes, 10 mg/ml of the DNA fragment mixture was dissolved in 10× PBS and diluted with 10× PBS at concentrations of 0 μg/ml, 10 μg/ml, 100 μg/ml and 1000 μg/ml. 10× PBS, containing different concentrations of the DNA fragment mixture, and rat tail collagen I solution diluted with DMEM at a concentration of 4 mg/ml, were mixed at a ratio of 1:10, and the mixture was adjusted to a pH of 7.0-7.4 with NaOH. Thereafter, the cells were carefully shaken to avoid air bubbles from entering the collagen solution. 2 μl of the solution was added to each well to construct a 3D gel-cell. The gel was kept in an incubator (37° C. and 5% CO2) for 45 minutes, and the 3D gel-cell matrix was exposed to serum-free medium for 48 hours. For drug screening from the DNA fragment mixture, the DNA fragment mixture was treated with serum-free medium after the SW-1353 cells were sufficiently grown.
(§2) SW-1353 cells were treated with 10-1000 μg/ml of the DNA fragment mixture and 0.1-10 mM of each of glucosamine (GLN), N-acetyl-D-glucosamine (NAG), alliin, sodium butyrate (SB) and chondroitin sulfate (CS) for 24 hours, and stimulated with 10 ng/ml of IL-β for analysis of MMP expression therein.
(§3) To evaluate MMP expression, IL-β was dissolved in serum-free DMEM medium and used at a final concentration of 10 ng/ml. The cells were cultured at 37° C. under 5% CO2. The cell culture supernatant was collected, centrifuged, and then stored at −80° C. until use in the experiment. The amounts of MMP-3 and MMP-13 in the culture supernatant were measured using commercially available ELISA (enzyme-linked immunosorbent assays) according to the manufacturer's protocol.
(§4) During 3D cell culture, chondrocytes were cultured in 10% serum-containing medium or serum-free medium, and the cultured chondrocytes were stimulated with IL-β (10 ng/ml).
(§5) In addition, after 24 hours of treatment with the DNA fragment mixture and IL-β in serum-free medium, two markers (MMP-3 and MMP-13) which are frequently involved in degenerative arthritis disease were analyzed.

[2] = system: MMP-13; experiment: MMP-13 expression (ELISA of culture supernatant) in 2D cultured SW-1353 cells stimulated with IL-β; conditions: 2D SW-1353, 10 mM of inhibitor together with 0, 10, 100 and 1000 μl/ml DNA fragment mixture, IL-β 10 ng/ml
Method: (§6) The human chondrosarcoma cell line SW-1353 (HTB-94, ATCC, Mansassas, Va., USA) was cultured in DMEM (Dulbecco Modified Eagle's medium) supplemented with 10% FBS (fetal bovine serum) and 1% antibiotic-antifungal agent. An incubator for cell culture was kept at 37° C. under 5% CO2. For cell culture, cells were seeded into a culture flask at a density of 1.2×10^4 cells/cm^2. When a confluence of 80-90% was reached, the cells were trypsinized. The cells were subcultured 9 times before use in the experiment.
as §2, §3
(§7) Cells of test groups were cultured with 10 ng/ml of IL-β under the same conditions as those of the control group.

[3] = system: MMP-13; experiment: MMP-13 expression (ELISA) in 3D cultured SW-1353 cells stimulated with IL-β; conditions: 3D SW-1353, 10 mM of inhibitor together with 0, 10, 100 and 1000 μl/ml DNA fragment mixture, IL-β 10 ng/ml
Method: as §1, §2, §3, §4, §5

[4] = system: MMP-3; experiment: MMP-3 expression (ELISA of culture supernatant) in 2D cultured SW-1353 cells stimulated with IL-β; conditions: 2D SW-1353, 10 mM of inhibitor together with 0, 10, 100 and 1000 μg/ml DNA fragment mixture, IL-β 10 ng/ml
Method: as §6, §2, §3, §7

CC(=O)N[C@H]1C(O)O[C@H](CO)[C@@H](O)[C@@H]1O (stereo partly drawn) [N-acetyl-D-glucosamine]
decreased: expression level of MMP-3 protein [1] | expression level of MMP-13 protein [2] | expression level of MMP-13 protein [3] | expression level of MMP-3 protein [4]

N[C@H]1C(O)O[C@H](CO)[C@@H](O)[C@@H]1O (some centres unmarked) [glucosamine]
decreased: expression level of MMP-3 protein [1] | expression level of MMP-13 protein [2] | expression level of MMP-13 protein [3] | expression level of MMP-3 protein [4]

CCCC(=O)[O-].[Na+] [sodium butyrate]
decreased: expression level of MMP-3 protein [1] | expression level of MMP-13 protein [2] | expression level of MMP-13 protein [3] | expression level of MMP-3 protein [4]

alliin
decreased: expression level of MMP-3 protein [1] | expression level of MMP-13 protein [2] | expression level of MMP-13 protein [3] | expression level of MMP-3 protein [4]

chondroitin sulfate
decreased: expression level of MMP-3 protein [1] | expression level of MMP-13 protein [2] | expression level of MMP-13 protein [3] | expression level of MMP-3 protein [4]
